From article PMC12624955, “Exploring diarylheptanoid derivatives to target LIMK1 as potential agents against colorectal cancer” (Journal of Enzyme Inhibition and Medicinal Chemistry, 2025)
Read-outs that look alike come from different tables or passages of the source.

What was measured:
LIMK1 = biological target: T1, LIMK1 (Homo sapiens, UniProt P53667); test: LanthaScreen Eu kinase binding assay (SelectScreen), LIMK1 inhibition; conditions: for inhibition at 10 µM: compound at 10 μM, average of two replicates, read-out: Inhibition percentage at 10 μM
T1 construct: purchased Thermo Fisher Scientific (SelectScreen Kinase assay service)
T1 sequence (P53667 whole entry): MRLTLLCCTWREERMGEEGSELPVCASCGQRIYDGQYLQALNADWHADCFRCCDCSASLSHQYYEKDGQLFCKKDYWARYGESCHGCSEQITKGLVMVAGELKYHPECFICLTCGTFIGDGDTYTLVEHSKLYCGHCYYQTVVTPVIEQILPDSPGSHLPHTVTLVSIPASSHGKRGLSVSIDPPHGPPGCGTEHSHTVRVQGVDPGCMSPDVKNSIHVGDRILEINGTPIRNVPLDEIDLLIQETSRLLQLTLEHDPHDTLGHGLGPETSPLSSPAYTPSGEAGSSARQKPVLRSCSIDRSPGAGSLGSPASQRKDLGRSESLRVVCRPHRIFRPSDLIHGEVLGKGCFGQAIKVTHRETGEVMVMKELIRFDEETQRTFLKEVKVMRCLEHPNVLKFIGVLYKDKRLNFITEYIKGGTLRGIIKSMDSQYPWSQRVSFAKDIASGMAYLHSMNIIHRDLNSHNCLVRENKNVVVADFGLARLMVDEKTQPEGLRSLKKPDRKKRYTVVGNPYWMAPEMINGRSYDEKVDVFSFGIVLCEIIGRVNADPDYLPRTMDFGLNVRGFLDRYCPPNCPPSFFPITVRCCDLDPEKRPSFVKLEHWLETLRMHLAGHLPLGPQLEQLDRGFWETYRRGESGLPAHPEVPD
Experimental: The inhibitory activities of the compounds against kinases were tested using the SelectScreen Kinase assay from Thermo Fisher Scientific in Waltham, MA, USA. The LanthaScreen Eu kinase binding assay was used to validate the LIMK1 inhibition activity of the compounds, and was performed according to the manufacturer’s protocol (https://www.thermofisher.com/tw/zt/home/industrial/pharma-biopharma/drug-discovery-development/target-and-lead-identification-and-validation/kinasebiology/kinase-activity-assays/lanthascreentm-eu-kinase-binding-assay/lanthascreen-eu-kinase-binding-assay-validation-table.html). This endpoint assay quantifies inhibitor binding through the displacement of a fluorescently labelled ATP-competitive tracer from LIMK1. A mixture of the 100× compounds, 2× LIMK1/antibody mixture (Eu-anti-His), 4× tracer 236, and kinase buffer were mixed sequentially. After incubation at room temperature for 1 h, the mixture was analysed using a fluorescence plate reader. The kinase inhibition assay results were expressed as the average of two replicates.

HT-29 [1] = test: MTT assay (cell viability); format: cell-based; conditions: Homo sapiens, 72 h, mean ± SD
Experimental: (§1) Colorectal cell line, HCT-116, was purchased from the Bioresource Collection and Research Centre (BCRC, Hsinchu, Taiwan), while HT-29 was obtained from the American Type Culture Collection (ATCC, Manassas, VA, USA). Both cell lines were maintained in McCoy’s 5 A medium (with L-glutamine and 2.2 g/L NaHCO3, M4892, Sigma) supplemented with 10% foetal bovine serum (Corning Incorporated, NY, USA) and 1% penicillin–streptomycin–amphotericin B (100 unit/ml penicillin G, 0.1 mg/ml streptomycin sulphate, 0.25 μg/ml amphotericin B, Corning Incorporated, NY, USA). All cultures were maintained in a humidified incubator at 37 °C with 5% CO2.
(§2) Cells were seeded in 96-well plates at a density of 3 × 10^3 cells/well in 100 μl of culture medium and treated with compounds at the indicated concentrations (0.3, 1, 3, 10, and 30 μM) for 72 h. Following treatment, the 3-(4,5-dimethylthiazol-2-yl)-2,5-diphenyltetrazolium bromide (MTT) solution (5 mg/ml in Phosphate-buffered saline (PBS)) was added to each well to reach a final concentration of 0.5 mg/ml, and the cells were incubated at 37 °C for 1 h. The resulting formazan crystal was dissolved in 100 µl of DMSO, and the absorbance was measured at 550 nm using an ELISA reader (Molecular Device, Sunnyvale, CA, USA).

HCT-116 [2] = test: MTT assay (cell viability); format: cell-based; conditions: Homo sapiens, 72 h, mean ± SD
Experimental: as §1, §2

HT-29 [3] = test: Sulforhodamine B assay (cell proliferation); format: cell-based; conditions: Homo sapiens, SRB assay, 72 h, mean ± SD
Experimental: as §1
(§3) Cells were seeded in 96-well plates at a density of 3 × 10^3 cells/well in 100 μl of culture medium and treated with compounds at the indicated concentrations for 72 h. After treatment, cells were fixed with 10% trichloroacetic acid for 20 min and washed with H2O. The cells were then stained with 0.4% sulforhodamine B (SRB) in 1% acetic acid for 20 min, followed by two washes with 1% acetic acid. After the well-dried, the protein-bound dye was dissolved in 100 µl of 10 mM Tris base solution, and the absorbance was measured at 515 nm using an ELISA reader (Molecular Device, Sunnyvale, CA, USA).

HCT-116 [4] = test: Sulforhodamine B assay (cell proliferation); format: cell-based
Experimental: as §1, §3

LIMK = conditions: cited from earlier work

SMILES	inhibition at 10 µM (LIMK1) [%]	further results
COCOc1cccc2c1ccn2CCCCC(=O)/C=C/c1ccc(O)c(O)c1 [Compound 15, (E)-1-(3,4-dihydroxyphenyl)-7-(4-(methoxymethoxy)-1H-indol-1-yl)hept-1-en-3-one]	106	IC50 (LIMK1): 1.88 µM
O=C(/C=C/c1ccc(O)c(O)c1)CCCCn1ccc2ccccc21 [Compound 18, (E)-1-(3,4-dihydroxyphenyl)-7-(1H-indol-1-yl)hept-1-en-3-one]	110	IC50 (LIMK1): 1.49 µM
O=C(CCCCn1ccc2ccccc21)CCc1ccc(O)c(O)c1 [Compound 19, 1-(3,4-Dihydroxyphenyl)-7-(1H-indol-1-yl)heptan-3-one]	28	–
O=C(/C=C/c1ccc(O)c(O)c1)CCCCc1ccccc1 [Compound I]	101	IC50 (LIMK1): 1.59 µM
O=C(/C=C/c1ccccc1)CCCCc1ccccc1 [Compound VII]	≤ 0	–
O=C(/C=C/c1ccc(O)c(O)c1)CCCc1ccccc1 [Compound VI]	82	–
O=C(/C=C/c1ccc(O)c(O)c1)CCc1ccccc1 [Compound V]	68	–
O=C(/C=C/c1cc(O)c(O)c(O)c1)CCCCc1ccccc1 [Compound XV]	112	IC50 (HT-29 [1]): > 30 µM; IC50 (HCT-116 [2]): > 30 µM; GI50 (HT-29 [3]): 28.8 ± 1.8 µM; GI50 (HCT-116 [4]; Homo sapiens, SRB assay, 72 h, mean ± SD): > 30 µM; growth inhibition of HCT-116 cells (HCT-116 [4]; concentration of 30 µM): did not inhibit the growth; IC50 (LIMK1): 0.57 µM; IC50 (LIMK1; as printed in text): 0.569 µM
O=C(/C=C/c1ccc(O)c(F)c1)CCCCc1ccccc1 [Compound X]	≤ 0	–
O=C(/C=C/c1ccc(O)c(O)c1)c1ccccc1 [III]	84	–
O=C(CCCCc1ccccc1)CCc1ccc(O)c(O)c1 [II]	30	–
O=C(/C=C/c1ccc(O)c(O)c1)Cc1ccccc1 [IV]	56	–
O=C(/C=C/c1cccc(O)c1)CCCCc1ccccc1 [IX]	≤ 0	–
O=C(/C=C/c1ccc(O)cc1)CCCCc1ccccc1 [VIII]	≤ 0	–
O=C(/C=C/c1ccc(O)c([N+](=O)[O-])c1)CCCCc1ccccc1 [XIII]	7	–
O=C(/C=C/c1ccc(O)c(Br)c1)CCCCc1ccccc1 [XII]	1	–
COc1cc(/C=C/C(=O)CCCCc2ccccc2)ccc1O [XIV]	1	–
O=C(/C=C/c1ccc(O)c(Cl)c1)CCCCc1ccccc1 [XI]	4	–
COc1cc(/C=C/C(=O)CC(=O)/C=C/c2ccc(O)c(OC)c2)ccc1O [curcumin]	–	IC50 (LIMK): 30 µM

Continued, in another order:

inhibition at 10 µM (LIMK1) [%]	SMILES	further results
89	O=C(/C=C/c1ccc(O)c(O)c1)CCCCc1ccccc1O [Compound 7a, 1-(3.4-Dihydroxyphenyl)-7-(2-hydroxyphenyl)hept-1-en-3-one]	IC50 (LIMK1): 1.77 µM
102	O=C(/C=C/c1ccc(O)c(O)c1)CCCCc1cccc(O)c1 [Compound 7b, 1-(3.4-Dihydroxyphenyl)-7-(3-hydroxyphenyl)hept-1-en-3-one]	IC50 (LIMK1): 1.11 µM
106	O=C(/C=C/c1ccc(O)c(O)c1)CCCCc1ccc(O)cc1 [Compound 7c, 1-(3.4-Dihydroxyphenyl)-7-(4-hydroxyphenyl)hept-1-en-3-one]	IC50 (LIMK1): 1.09 µM
37	O=C(CCCCc1ccccc1O)CCc1ccc(O)c(O)c1 [Compound 8a, 1-(3.4-Dihydroxyphenyl)-7-(2-hydroxyphenyl)heptan-3-one]	–
34	O=C(CCCCc1cccc(O)c1)CCc1ccc(O)c(O)c1 [Compound 8b, 1-(3.4-Dihydroxyphenyl)-7-(3-hydroxyphenyl)heptan-3-one]	–
47	O=C(CCCCc1ccc(O)cc1)CCc1ccc(O)c(O)c1 [Compound 8c, 1-(3.4-Dihydroxyphenyl)-7-(4-hydroxyphenyl)heptan-3-one]	–
106	O=C(/C=C/c1ccc(O)c(O)c1)CCCCn1ccc2ccc(O)cc21 [Compound 13b, (E)-1-(3.4-dihydroxyphenyl)-7-(6-hydroxy-1H-indol-1-yl)hept-1-en-3-one]	IC50 (LIMK1): 1.39 µM
51	O=C(CCCCn1ccc2c(O)cccc21)CCc1ccc(O)c(O)c1 [Compound 14a, 1-(3,4-Dihydroxyphenyl)-7-(4-hydroxy-1H-indol-1-yl)heptan-3-one]	–
53	O=C(CCCCn1ccc2ccc(O)cc21)CCc1ccc(O)c(O)c1 [Compound 14b, 1-(3,4-Dihydroxyphenyl)-7-(6-hydroxy-1H-indol-1-yl)heptan-3-one]	–
